Measurements reported in ChEMBL document CHEMBL1201862, “PubChem BioAssay data set” (2004).
Activity calls are given as the source filed them.

Key:
[1] = molecular target: T1, Microphthalmia-associated transcription factor (Homo sapiens, UniProt O75030); assay: reducers of TRPM1 reporter luminescence, concentration series – cell-based, SK-MEL-5, cherry-picked, set 3, MITF inhibitor project, dose response (AID 493073); assay type: functional;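 further: SK-MEL-5 melanoma cells with luciferase driven by the MITF target TRPM1 promoter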
T1 sequence (O75030 whole entry): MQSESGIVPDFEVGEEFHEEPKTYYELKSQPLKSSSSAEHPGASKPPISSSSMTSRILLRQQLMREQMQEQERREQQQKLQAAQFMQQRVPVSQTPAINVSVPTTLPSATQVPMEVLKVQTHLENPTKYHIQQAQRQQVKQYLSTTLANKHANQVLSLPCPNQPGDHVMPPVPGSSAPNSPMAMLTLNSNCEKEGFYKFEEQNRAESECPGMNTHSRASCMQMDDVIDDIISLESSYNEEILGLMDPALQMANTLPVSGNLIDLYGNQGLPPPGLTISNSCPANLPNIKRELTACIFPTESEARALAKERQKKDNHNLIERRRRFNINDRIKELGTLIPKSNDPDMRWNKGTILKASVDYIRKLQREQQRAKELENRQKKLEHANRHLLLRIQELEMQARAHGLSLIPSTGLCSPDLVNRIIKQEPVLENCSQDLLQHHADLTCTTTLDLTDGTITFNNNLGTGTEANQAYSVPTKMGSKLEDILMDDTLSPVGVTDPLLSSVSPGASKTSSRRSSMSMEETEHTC

[2] = viability of PTEN-deleted HCT116 cells – cell-based, HCT116 PTEN knockout, dose response (AID 1047); assay type: functional;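 further: HCT116 colon tumor cells with PTEN knocked out; cells exposed to compound for 60 hours before readout; potency for loss of cell viability measured by luminescence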
[3] = viability of HCT116 lacking mutant beta-catenin – cell-based, human colon tumor, dose response (AID 1045); assay type: functional;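 further: HCT116 colon tumor cells with beta catenin knocked out; cells exposed to compound for 60 hours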
[4] = molecular target: Mu-type opioid receptor (Homo sapiens, UniProt P35372); assay type: functional, cell-based;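 further: U2OS cells with beta-arrestin recruitment to OPRM1 by beta-gal complementation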
[5] = molecular target: 5-hydroxytryptamine receptor 2A (Mus musculus, UniProt P35363); assay type: functional, cell-based;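 further: CHO-K1 cells with tagged receptor and beta-arrestin; agonist potency measured as compound-induced activation of the receptor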
[6] = test system: HeLa; assay: ATP-based viability loss in HeLa cells – cell-based, CellTiter-Glo luminescence, cherry-pick samples, cytotoxicity control for MITF activator project, dose response (AID 540259); assay type: functional; details: Homo sapiens
[7] = test system: Escherichia coli; assay: microbe, parasite or virus in culture
[8] = test system: Vero; assay: viability of Vero cells under compound – cytotoxicity control for flavivirus capping enzyme inhibitors (AID 588742); assay type: functional; details: Chlorocebus sabaeus
[9] = Trypanosoma cruzi growth suppression in host cells – NIH3T3 host cells, beta-gal luminescence, confirmation (AID 2044); assay type: functional, cell-based;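 further: intracellular parasites grown in NIH/3T3 mouse fibroblasts as host cells; luminescent beta-galactosidase reporter signal from transgenic T. cruzi replicating inside host cells; inhibitors lower the luminescence signal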
[10] = viability loss of HPDE-C7K cells – cell-based, fluorescence, HTS, primary screen (AID 431); assay type: functional; details: Homo sapiens
[11] = NIH3T3 cell viability loss – ATP luminescence, mouse fibroblasts, counter-screen, dose response (AID 2010); assay type: functional, cell-based;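 further: cells exposed to compound for about 90 hours before reading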
[12] = HPDE-C7 pancreatic duct cell viability loss – fluorescence, HTS (AID 430); assay type: functional, cell-based; details: Homo sapiens
[13] = loss of viability in HepG2 cells – cell-based, CellTiter-Glo, cherry-picked, cytotoxicity control for Shn3 inhibitor project, dose response (AID 624134); assay type: functional
[14] = non-specific 3'UTR reporter inhibition in Clone20-Shn3RL – cell-based, Renilla luciferase, cherry-picked, counter-screen for Shn3 inhibitor project, dose response (AID 624133); assay type: functional
[15] = reduction of Shn3 3'UTR-driven luciferase in osteoblasts – cell-based, Clone20 osteoblasts, firefly luciferase, cherry-picked, dose response (AID 624132); assay type: functional;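 further: firefly luciferase luminescence from reporter carrying the Shn3 3'UTR in osteoblasts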
[16] = molecular target: Dual specificity tyrosine-phosphorylation-regulated kinase 1A (Rattus norvegicus, UniProt Q63470); assay type: biochemical, Homo sapiens

Sequence of 5-hydroxytryptamine receptor 2A (P35363 whole entry): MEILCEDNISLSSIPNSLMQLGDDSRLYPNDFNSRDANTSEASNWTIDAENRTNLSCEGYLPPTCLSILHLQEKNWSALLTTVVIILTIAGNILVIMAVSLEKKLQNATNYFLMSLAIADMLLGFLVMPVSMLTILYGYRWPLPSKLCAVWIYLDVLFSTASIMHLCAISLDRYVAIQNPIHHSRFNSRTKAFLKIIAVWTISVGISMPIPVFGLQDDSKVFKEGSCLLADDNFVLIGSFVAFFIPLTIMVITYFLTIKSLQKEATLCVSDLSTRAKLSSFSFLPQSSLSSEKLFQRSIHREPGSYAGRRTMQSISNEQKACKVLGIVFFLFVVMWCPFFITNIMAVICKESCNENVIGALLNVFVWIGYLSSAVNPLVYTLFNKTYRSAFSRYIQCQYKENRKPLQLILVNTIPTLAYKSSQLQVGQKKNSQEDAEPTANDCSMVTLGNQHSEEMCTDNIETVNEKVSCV
Sequence of Mu-type opioid receptor (P35372 whole entry): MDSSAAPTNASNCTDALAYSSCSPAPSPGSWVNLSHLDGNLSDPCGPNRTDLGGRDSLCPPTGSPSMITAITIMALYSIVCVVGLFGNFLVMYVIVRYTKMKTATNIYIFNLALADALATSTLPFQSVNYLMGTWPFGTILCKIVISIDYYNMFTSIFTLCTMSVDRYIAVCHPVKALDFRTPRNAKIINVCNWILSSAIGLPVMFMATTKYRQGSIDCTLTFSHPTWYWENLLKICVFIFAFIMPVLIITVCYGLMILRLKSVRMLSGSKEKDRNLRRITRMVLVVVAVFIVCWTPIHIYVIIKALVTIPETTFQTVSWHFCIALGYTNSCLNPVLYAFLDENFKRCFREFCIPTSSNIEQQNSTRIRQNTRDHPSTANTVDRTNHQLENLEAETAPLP

For CCOc1ccc2nc(C)cc(Nc3cccc([N+](=O)[O-])c3)c2c1, the AC50 [1] was 17.8 µM (active), the EC50 [2] was 5.88 µM (active) and the EC50 [3] was 7.34 µM (active).

For CC(=O)c1cccc(OCC(O)CNCC2COc3ccccc3O2)c1 (stereo unspecified), the EC50 [4] was 92.5 µM (inactive) and the EC50 [5] was 2.85 µM (active).

For CCc1ccc(NC(=O)c2nnc(O)c3ccccc23)cc1, the AC50 [6] was > 350 µM (inactive).

In the case of Oc1c(Br)cc(C2NC(c3ccccc3)=NO2)cc1Br (stereo unspecified), the AC50 [7] is reported as 20.2 µM (active).

For CC1CCc2cc(F)cc3c(=O)c(C(=O)O)cn1c23 (stereo unspecified) [FLUMEQUINE], the AC50 [7] was 1.99 µM (active).

For CN1CCc2c(C#N)c(N3CCCCC3)nc(NCc3ccccc3)c2C1, the CC50 [8] was > 40 µM (active), the EC50 [9] was 0.639 µM (active) and the EC50 [2] was 17.8 µM (active). The EC50 [3] was 13.5 µM (active), the EC50 [10] was 2.44 µM (active) and the EC50 [11] was > 60 µM (not active). The EC50 [12] was 16.8 µM (active).

In the case of CCSc1nnc(NC(=O)NC2CCCCC2)s1, the AC50 [6] is reported as 136 µM (active).

In the case of CC1CCC/C=C/C(=O)c2c(O)cc(O)cc2CC(=O)O1 (stereo unspecified), the AC50 [13] is reported as > 70 µM (inactive), the AC50 [14] is reported as 13.6 µM (active) and the AC50 [1] is reported as 5.79 µM (active). The AC50 [15] was 4.12 µM (active).

In the case of COc1cc(/C=C2/C(=N)N3C(SC)=NSC3=NC2=O)ccc1OC(=O)c1ccco1, the AC50 [16] is reported as 5.64 µM (active).
